Measured values as given in the OPERA property sets (Mansouri et al. 2018).

Conditions: not given

Q: With `COc1cccc(C(=O)O)c1O` as the molecule, how does the melting point read?
A: The melting point was 151 °C.

Q: Which melting point does the source give for `C[C@]12COC(=O)C[C@@H]1CC[C@@H]1[C@@H]2CC[C@@]2(C)[C@H]1CC[C@]2(C)O` here?
A: Its melting point is 236 °C.

Q: Which melting point does the source give for `C[C@]12CC[C@H]3[C@@H](CCC4=CC(=O)CC[C@@]43C)[C@@H]1CC[C@@H]2OC(=O)CCC1CCCC1` here?
A: The melting point was 155 °C.

Q: Which boiling point does the source give for `ClCC(Cl)(CCl)CCl` here?
A: The boiling point was 211 °C.

Q: With `CCON=C(CC)C1=C(O)CC(c2c(C)cc(C)cc2C)CC1=O` (stereo not given) as the molecule, how does the log10 vapour pressure (mmHg) read?
A: Its log10 vapour pressure (mmHg) is -8.56.

Q: What about the melting point of the same molecule?
A: The melting point was 106 °C.

Q: With `Cc1cc(CC(C)CC(C)(C)C)n(O)c(=O)c1` (stereo not given) as the molecule, how does the melting point read?
A: The melting point was 108 °C.

Q: Which log10 Koc (L/kg) does the source give for `CCCN(CCC)c1c([N+](=O)[O-])cc(C(F)(F)F)c(N)c1[N+](=O)[O-]` here?
A: Its log10 Koc (L/kg) is 4.11.

Q: What about the log10 vapour pressure (mmHg) of the same molecule?
A: Its log10 vapour pressure (mmHg) is -7.61.

Q: What about the melting point of the same molecule?
A: The melting point was 124 °C.

Q: With `Clc1cccc2ncccc12` as the molecule, how does the boiling point read?
A: The boiling point was 256 °C.

Q: What about the melting point of the same molecule?
A: The melting point was 45 °C.

Q: Which boiling point does the source give for `CCCCCC(O)CCCCC` here?
A: Its boiling point is 228 °C.

Q: What about the melting point of the same molecule?
A: The melting point was 25 °C.

Q: Which log10 Henry constant (atm·m³/mol) does the source give for `Clc1ccc(Cl)c(-c2ccc(Cl)c(Cl)c2)c1` here?
A: Its log10 Henry constant (atm·m³/mol) is -4.

Q: What about the log10 Koc (L/kg) of the same molecule?
A: Its log10 Koc (L/kg) is 4.86.

Q: What about the log10 vapour pressure (mmHg) of the same molecule?
A: Its log10 vapour pressure (mmHg) is -4.39.

Q: What about the melting point of the same molecule?
A: Its melting point is 106 °C.

Q: With `CC(=O)c1ccc(C)cc1C` as the molecule, how does the boiling point read?
A: Its boiling point is 228 °C.

Q: For `c1cnc2c(c1)CCCC2`, which boiling point is on record?
A: The boiling point was 222 °C.

Q: For `CC1(C)CC(NCCCCCCNC2CC(C)(C)NC(C)(C)C2)CC(C)(C)N1`, which melting point is on record?
A: The melting point was 64 °C.

Q: With `CCCCCCCCCC[C@H](O)CC` as the molecule, how does the melting point read?
A: Its melting point is 32 °C.

Q: For `c1ccc2oc(-c3ccc(-c4nc5ccccc5o4)s3)nc2c1`, which melting point is on record?
A: Its melting point is 219 °C.

Q: For `CCn1cccc1`, which boiling point is on record?
A: The boiling point was 130 °C.

Q: Which results are given for `CCC(C)C(C)(C)CC` (stereo not given)?
A: boiling point: 140 °C; log10 vapour pressure (mmHg): 0.948; melting point: -101 °C

Q: With `c1ccc2c(c1)CCO2` as the molecule, how does the boiling point read?
A: The boiling point was 188 °C.

Q: What about the melting point of the same molecule?
A: The melting point was -21.5 °C.

Q: With `Clc1cccc2c(Cl)cccc12` as the molecule, how does the log10 Koa read?
A: The log10 Koa was 6.65.

Q: What about the melting point of the same molecule?
A: Its melting point is 107 °C.

Q: For `O=c1cc(-c2ccccc2)oc2ccccc12`, which melting point is on record?
A: The melting point was 100 °C.

Q: Which boiling point does the source give for `CCc1cccc2c1CCCC2` here?
A: The boiling point was 245 °C.

Q: And the melting point?
A: The melting point was -44.5 °C.

Q: With `CC(C)CCC[C@@H](C)[C@H]1CC[C@H]2[C@@H]3CC[C@@H]4C[C@H](O)CC[C@]4(C)[C@H]3CC[C@]12C` as the molecule, how does the melting point read?
A: Its melting point is 143 °C.

Q: What does the source list for `CCCOCOCCC`?
A: boiling point: 140 °C; melting point: -97.3 °C

Q: With `C[C@](N)(Cc1ccc(O)cc1)C(=O)O` as the molecule, how does the melting point read?
A: Its melting point is 312 °C.

Q: For `Nc1cccc2c(O)nnc(O)c12`, which melting point is on record?
A: The melting point was 330 °C.

Q: For `Cc1cc(-c2ccc(N)c(C)c2)ccc1N`, which boiling point is on record?
A: The boiling point was 339 °C.

Q: And the melting point?
A: The melting point was 132 °C.

Q: And the ready biodegradability?
A: Its ready biodegradability is “not readily biodegradable”.

Q: Which log10 vapour pressure (mmHg) does the source give for `C1N2CN3CN1CN(C2)C3` here?
A: The log10 vapour pressure (mmHg) was -2.4.

Q: And the ready biodegradability?
A: Its ready biodegradability is “readily biodegradable”.

Q: With `COC(=O)c1cc(OC)c(OC)c(OC)c1` as the molecule, how does the boiling point read?
A: The boiling point was 274 °C.

Q: What about the melting point of the same molecule?
A: Its melting point is 83 °C.

Q: What does the source list for `CCCCCCCCCCCCCCCCCCCCCC`?
A: boiling point: 369 °C; log10 biodegradation half-life (days): 2.1; log10 vapour pressure (mmHg): -5.89; melting point: 44.4 °C; ready biodegradability: readily biodegradable

Q: For `CCCCCCCCC1CCCCC1`, which boiling point is on record?
A: Its boiling point is 264 °C.

Q: And the log10 vapour pressure (mmHg)?
A: The log10 vapour pressure (mmHg) was -2.04.

Q: And the melting point?
A: Its melting point is -20 °C.

Q: With `C1CC[C@H]2CCC[C@@H]2C1` (racemic) as the molecule, how does the boiling point read?
A: The boiling point was 167 °C.

Q: And the melting point?
A: Its melting point is -53 °C.

Q: For `CC(=O)[O-].[K+]`, which melting point is on record?
A: The melting point was 292 °C.

Q: Which results are given for `COP(=S)(OC)Oc1cc(Cl)c(Cl)cc1Cl`?
A: log10 vapour pressure (mmHg): -4.12; melting point: 41 °C

Q: For `O=[N+]([O-])c1cc([N+](=O)[O-])c(Cl)c(C(F)(F)F)c1`, which melting point is on record?
A: The melting point was 63 °C.

Q: With `CC(=O)[C@@]1(O)[C@H](O)C[C@H]2[C@@H]3CCC4=CC(=O)CC[C@]4(C)[C@H]3CC[C@@]21C` as the molecule, how does the melting point read?
A: Its melting point is 225 °C.

Q: With `CC(C)OCCO` as the molecule, how does the boiling point read?
A: The boiling point was 145 °C.

Q: What about the log10 Henry constant (atm·m³/mol) of the same molecule?
A: Its log10 Henry constant (atm·m³/mol) is -6.04.

Q: What about the ready biodegradability of the same molecule?
A: The ready biodegradability was “not readily biodegradable”.

Q: For `O=C1c2ccccc2C(=O)N1SC(Cl)(Cl)Cl`, which log10 Koc (L/kg) is on record?
A: Its log10 Koc (L/kg) is 3.27.

Q: What about the log10 vapour pressure (mmHg) of the same molecule?
A: The log10 vapour pressure (mmHg) was -6.8.

Q: For `O=C(O)C(Cc1ccccc1)C(=O)O`, which melting point is on record?
A: Its melting point is 121 °C.

Q: Which melting point does the source give for `CCOC(=O)C=Cc1ccc([N+](=O)[O-])cc1` here?
A: The melting point was 139 °C.

Q: Which results are given for `Cc1ccc(Cl)c(O)c1`?
A: boiling point: 213 °C; melting point: 50.8 °C; ready biodegradability: not readily biodegradable

Q: With `CC(C)COCCO` as the molecule, how does the boiling point read?
A: The boiling point was 160 °C.

Q: With `Cc1c2ccccc2cc2c1ccc1ccccc12` as the molecule, how does the melting point read?
A: Its melting point is 141 °C.

Q: Which melting point does the source give for `CC(C)(C)c1ccc(O)c(N)c1` here?
A: The melting point was 161 °C.

Q: With `Nc1ncn([C@@H]2O[C@H](CO)[C@@H](O)[C@H]2O)c(=O)n1` as the molecule, how does the melting point read?
A: Its melting point is 229 °C.

Q: For `O=[N+]([O-])c1ccc2[nH]nnc2c1`, which melting point is on record?
A: The melting point was 217 °C.

Q: With `c1ccc(-c2nc3ccccc3o2)cc1` as the molecule, how does the melting point read?
A: The melting point was 103 °C.

Q: For `c1ccc2nc3ccc4ccccc4c3cc2c1`, which log10 Koc (L/kg) is on record?
A: Its log10 Koc (L/kg) is 4.39.

Q: Which results are given for `NCCNCCO`?
A: boiling point: 239 °C; melting point: -38 °C; ready biodegradability: not readily biodegradable

Q: Which melting point does the source give for `Clc1cc(Cl)c2c(oc3c(Cl)cccc32)c1Cl` here?
A: The melting point was 177 °C.

Q: With `C=C(C)F` as the molecule, how does the boiling point read?
A: Its boiling point is -24 °C.

Q: With `CC(C)Oc1ccc(C(=O)NS(=O)(=O)c2ccc(N)cc2)cc1` as the molecule, how does the melting point read?
A: Its melting point is 172 °C.

Q: For `CCB(CC)CC`, which boiling point is on record?
A: The boiling point was 95 °C.

Q: And the melting point?
A: The melting point was -93 °C.

Q: With `FB(F)c1ccccc1` as the molecule, how does the boiling point read?
A: Its boiling point is 98 °C.

Q: What about the melting point of the same molecule?
A: The melting point was -36.2 °C.

Q: For `C=CCC(O)C=C` (stereo not given), which boiling point is on record?
A: The boiling point was 134 °C.

Q: Which melting point does the source give for `O=[N+]([O-])c1cccc(CCl)c1` here?
A: Its melting point is 46 °C.

Q: Which melting point does the source give for `CC(C)(S)[C@@H](N)C(=O)O` here?
A: The melting point was 198 °C.

Q: For `CC(C)OC(=O)C(C)(C)Oc1ccc(C(=O)c2ccc(Cl)cc2)cc1`, which melting point is on record?
A: The melting point was 80.5 °C.

Q: Which melting point does the source give for `CCC1(c2ccccc2)CCC(=O)NC1=O` (stereo not given) here?
A: Its melting point is 84 °C.

Q: Which melting point does the source give for `O=C1NC(=O)c2cc([N+](=O)[O-])ccc21` here?
A: The melting point was 201 °C.

Same assay, conditions: fish

Q: For `c1ccccc1`, which log10 BCF is on record?
A: Its log10 BCF is 0.63.

Q: For `Cc1ccc(O)c([N+](=O)[O-])c1`, which log10 BCF is on record?
A: The log10 BCF was 0.95.

Q: Which log10 BCF does the source give for `c1ccc2cc3c(ccc4ccccc43)cc2c1` here?
A: Its log10 BCF is 2.41.

Q: What about the log10 biotransformation half-life (days) of the same molecule?
A: Its log10 biotransformation half-life (days) is 0.02.

Q: With `COc1cccc2ccccc12` as the molecule, how does the log10 BCF read?
A: The log10 BCF was 2.21.

Q: And the log10 biotransformation half-life (days)?
A: Its log10 biotransformation half-life (days) is 0.39.

Q: With `Clc1ccc(Cl)c(-c2ccc(Cl)c(Cl)c2)c1` as the molecule, how does the log10 BCF read?
A: Its log10 BCF is 5.08.

Q: What about the log10 biotransformation half-life (days) of the same molecule?
A: The log10 biotransformation half-life (days) was 2.65.

Q: Which log10 BCF does the source give for `Cc1cc(-c2ccc(N)c(C)c2)ccc1N` here?
A: Its log10 BCF is 1.67.

Q: Which log10 biotransformation half-life (days) does the source give for `CCCCCCCCC1CCCCC1` here?
A: Its log10 biotransformation half-life (days) is 1.1.

Q: Which results are given for `COP(=S)(OC)Oc1cc(Cl)c(Cl)cc1Cl`?
A: log10 BCF: 3.58; log10 biotransformation half-life (days): 0.95

Q: For `Cc1ccc(Cl)c(O)c1`, which log10 BCF is on record?
A: The log10 BCF was 0.67.

Q: For `Cc1c2ccccc2cc2c1ccc1ccccc12`, which log10 biotransformation half-life (days) is on record?
A: Its log10 biotransformation half-life (days) is -0.05.

Q: Which log10 BCF does the source give for `c1ccc2nc3ccc4ccccc4c3cc2c1` here?
A: The log10 BCF was 2.02.

Q: For `NCCNCCO`, which log10 BCF is on record?
A: The log10 BCF was 0.46.
